Experimental data: patent US10899741B2, “3,4-bipyridyl pyrazole derivative, and preparation method therefor and medical application thereof” (Jiangsu Hengrui Medicine Co., Ltd., priority 2016, dated 2021)

What was measured:
TGFβRI kinase ALK5 = TGFβRI kinase ALK5 (Homo sapiens (Human), UniProt P36897); experiment: Inhibition of TGFβRI kinase ALK5 activity (ADP-Glo kit); assay type: biochemical; conditions: ATP 50 μM, 27° C. 2.5 hours
Protocol: The inhibition effect of TGFβRI kinase activity in vitro was determined by the following method.
The inhibition effect of the compounds of the present invention on TGFβRI kinase ALK5 activity was determined by the following experimental method:
TGFβRI kinase assay kit (V4093, Promega) was used to assay enzyme activity. 2 μl of enzyme solution (the final concentration of enzyme in the reaction system was 2 ng/μL) formulated with reaction buffer (40 mM Tris pH 7.5, 20 mM MgCl2, 0.1 mg/ml BSA), 1 μl of a 3-fold gradient dilution of the compounds dissolved in 5% DMSO, and 2 μl of a mixed solution of ATP and TGFβRI substrate peptide (the final concentration of ATP was 50 μM, and the final concentration of substrate was 0.2 μg/μL) were added successively to a 384-well plate (4514, Corning). After reaction at 27° C. for 2.5 hours, 5 μl of ADP-Glo solution in the kit was added to each well, then the plate was placed at 27° C. for 40 minutes. 10 μl of kinase assay reagent was then added to each well, then the plate was placed at 27° C. for 30 minutes. The chemiluminescence signal values were measured with a Victor 3 (PerkinElmer) multi-function microplate reader. The IC50 values of the compounds for enzyme inhibition were calculated using Graphpad prism software based on each concentration of the compound and the corresponding signal value thereof.

RIPK2 kinase = RIPK2 kinase (Homo sapiens (Human), UniProt O43353); experiment: Inhibition of RIPK2 kinase activity (ADP-Glo kit); assay type: biochemical; conditions: ATP 50 μM, 27° C. 2.5 hours
Chain of RIPK2 kinase (O43353 whole entry): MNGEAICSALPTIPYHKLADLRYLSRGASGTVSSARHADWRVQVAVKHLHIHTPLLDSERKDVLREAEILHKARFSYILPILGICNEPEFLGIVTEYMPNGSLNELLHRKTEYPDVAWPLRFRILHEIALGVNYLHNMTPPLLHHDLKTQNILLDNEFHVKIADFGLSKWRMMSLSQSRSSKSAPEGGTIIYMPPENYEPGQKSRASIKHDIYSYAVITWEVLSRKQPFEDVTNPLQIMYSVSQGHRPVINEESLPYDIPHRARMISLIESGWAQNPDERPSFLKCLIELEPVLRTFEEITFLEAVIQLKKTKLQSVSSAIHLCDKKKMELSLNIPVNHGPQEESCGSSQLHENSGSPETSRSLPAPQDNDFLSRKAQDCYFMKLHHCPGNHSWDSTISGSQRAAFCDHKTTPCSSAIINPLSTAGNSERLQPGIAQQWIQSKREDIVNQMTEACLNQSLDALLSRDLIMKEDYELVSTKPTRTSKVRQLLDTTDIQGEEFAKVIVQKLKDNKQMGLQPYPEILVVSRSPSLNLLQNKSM
Protocol: The inhibition of RIPK2 kinase activity in vitro was determined by the following method.
The inhibition effect of the compounds of the present invention on RIPK2 kinase activity was determined by the following experimental method:
RIPK2 kinase assay kit (V4084, Promega) was used to assay enzyme activity. 2 μl of RIPK2 enzyme solution (the final concentration of enzyme in the reaction system was 0.5 ng/μL) formulated with reaction buffer (40 mM Tris pH 7.5, 20 mM MgCl2, 0.1 mg/ml BSA), 1 μl of a 3-fold gradient dilution of Compound 1 dissolved in 5% DMSO, and 2 μl of a mixed solution of ATP and MBP substrate peptide (the final concentration of ATP was 50 μM, and the final concentration of substrate was 0.2 μg/μL) were added successively to a 384-well plate (4514, Corning). After reaction at 27° C. for 2.5 hours, 5 μl of ADP-Glo solution in the kit was added to each well, then the plate was placed at 27° C. for 40 minutes. 10 μl of kinase assay reagent was then added to each well, then the plate was placed at 27° C. for 30 minutes. The chemiluminescence signal values were measured with a Victor 3 (PerkinElmer) multi-function microplate reader. The IC50 values of the compounds for enzyme inhibition were calculated using Graphpad prism software based on each concentration of the compound and the corresponding signal value thereof.

NIH3T3 cell = experiment: Inhibition of NIH3T3 cell proliferation (CellTiter-Glo); assay type: cell-based; conditions: NIH3T3, 72 hours, 0.5% FBS; for IC50: Mus musculus
Protocol: The inhibition effect of the compounds of the present invention on NIH3T3 cell proliferation was determined by the following in vitro test.
The inhibition effect of the compounds of the present invention on NIH3T3 cell proliferation was determined by the following experimental method:
On a 96-well white plate with transparent bottom (3903, Corning), 100 μL of NIH3T3 cell (GNM6, Cell Bank of Typical Culture Collection Committee of Chinese Academy of Sciences) was seeded in a DMEM medium containing 10% FBS (SH1-30243.01, GE) in each well. The seeding density is 2000 cells/well. The cells were incubated overnight at 37° C., in 5% CO2. After overnight incubation, each well was replaced with 90 μL of DMEM medium containing 0.5%0 FBS. 10 μl of a 3-fold gradient dilution of the compounds with DMEM medium containing 0.5% FBS was then added, and the plate was incubated for 72 hours in a cell incubator at 37° C., in 5% CO2. Finally, 50 μL of CellTiter-Glo (G7573, Promega) was added to each well. After incubation for 10 minutes at room temperature, the chemiluminescence signal values were measured with a Victor 3 microplate reader (PerkinElmer). The IC50 values of the compounds were calculated using Graphpad Prism software based on each concentration of the compound and the corresponding signal value thereof.

[1] = Toxicity assay, repeated intragastrical administration to SD rats for 7 days; assay type: in vivo; conditions: 30 and 100 mg/kg qd
Protocol: Evaluation of the toxicity of TGFβ inhibitor Compound 1 repeatedly intragastrically administered to SD rats for 7 days.
Twenty six SPF grade SD rats (approximately 180˜200 g, 6-7 weeks old, half male and half female) were purchased from Shanghai Jiesijie Laboratory Animal Co., Ltd.
Feeding conditions: SPF grade, animals were housed in plastic transparent rat cages, and 2-3 rats per cage. Room temperature: 20-26° C., relative humidity: 40-70%. 12 hours light/12 hours dark were alternated. The rats had free access to pellet feed for rats. The rats had free access to high-temperature sterilized water via drinking bottle.
The animals were divided randomly into 5 groups, i.e. solvent control group, compound 1—30 mg/kg group, compound 1—100 mg/kg group, and the corresponding toxicokinetics groups. There were 6 rats in solvent control group, compound 1—30 mg/kg group and compound 1—100 mg/kg group, and there were 4 rats in each corresponding toxicokinetics groups, half male and half female.
The dose of the test compound in the 7-day toxicity assay in rats was 30 and 100 mg/kg (qd), respectively, and the administration was continued for 7 days. Administration route: intragastrical administration, administration dosage: 10 ml/kg, administration frequency and administration period: daily morning administration, continuous administration for 7 days.
The results of various indicators were entered into computer Excel and entered and processed by SPSS software package.
The clinical symptom, food intake and anatomical gross observation were not processed statistically, and only the observation data of the observation items in the protocol were listed. Indicators such as body weight, organ weight, and clinical examination were processed statistically using SPSS.

Chain of TGFβRI kinase ALK5 (P36897 34-503): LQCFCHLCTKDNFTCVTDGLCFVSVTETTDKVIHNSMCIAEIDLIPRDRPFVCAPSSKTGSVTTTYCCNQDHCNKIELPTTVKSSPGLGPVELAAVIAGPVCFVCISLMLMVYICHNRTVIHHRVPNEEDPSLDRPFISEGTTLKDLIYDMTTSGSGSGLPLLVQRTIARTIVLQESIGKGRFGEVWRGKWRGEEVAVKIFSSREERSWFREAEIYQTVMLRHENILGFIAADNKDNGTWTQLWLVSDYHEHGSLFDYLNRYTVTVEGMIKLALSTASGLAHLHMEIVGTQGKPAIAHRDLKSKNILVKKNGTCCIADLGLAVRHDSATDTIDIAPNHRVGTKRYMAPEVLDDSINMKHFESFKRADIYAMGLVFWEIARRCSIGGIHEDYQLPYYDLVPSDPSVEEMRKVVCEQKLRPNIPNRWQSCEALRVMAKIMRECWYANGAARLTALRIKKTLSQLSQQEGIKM

Row | Compound | IC50 (TGFβRI kinase ALK5) | IC50 (RIPK2 kinase) | IC50 (NIH3T3 cell) | Maximum inhibition rate (%) (NIH3T3 cell) | Blood biochemical indicators ([1]; 7 days) | Coagulation function and urine indexes compared with the solvent control group ([1]; 7 days) | Food intake ([1]; 7 days) | Safety under the conditions of this assay ([1]; 7 days) | Clinical observation of the animals during the administration ([1]; 7 days, intragastrical) | Body weight and body weight growth rate compared with the solvent control group ([1]; 7 days, p>0.05) | Gross pathological anatomy (autopsy) ([1]; after the last administration)
1 | Cc1cccc(-c2nn(C3CCC3)cc2-c2ccnc(-c3ccc(S(C)(=O)=O)cc3)c2)n1 [Example 1, 4-(1-Cyclobutyl-3-(6-methylpyridin-2-yl)-1H-pyrazol-4-yl)-2-(4-(methylsulfonyl)phenyl)pyridine] | 208 nM | 1200 nM | 88 nM | 105% | No toxicological changes | no obvious abnormalities | no obvious change | good safety | no obvious abnormality | no significant difference | no obvious abnormalities
2 | Cc1cccc(-c2nn(C3CC3)cc2-c2ccnc(-c3ccc(S(C)(=O)=O)cc3)c2)n1 [Example 2, 4-(1-Cyclopropyl-3-(6-methylpyridin-2-yl)-1H-pyrazol-4-yl)-2-(4-(methylsulfonyl)phenyl)pyridine] | 270 nM | – | 194 nM | 107% | – | – | – | – | – | – | –
